Results as given in BindingDB's records for PubMed 36166643 (University of Santiago De Compostela, 2022).

Test: Induction of CYP24A1 (unknown orgin) transcriptional activity trasfected in human MCF7 cells incuabted for 48 hrs by luciferase reporter gene assay

EC50 [nM]	Structure (SMILES)
3	C=C1/C(=C\C=C\c2cc(CCCCCC(C)(C)O)cc(CCCCCC(C)(C)O)c2)C[C@@H](O)C[C@@H]1O
5.6	C=C1/C(=C\C=C(/CCCCCC(C)(C)O)c2cccc(CCCCCC(C)(C)O)c2)C[C@@H](O)C[C@@H]1O
